Here are results for 15 compounds from patent US5340814A, “3-substituted methyl-2,3-dihydroimidazo[1,2-C] quinazoline derivatives, the preparation and use thereof” (National Science Council, priority 1992, dated 1994).

For one assay, the target named is T1, α2-adrenergic receptor (Rattus norvegicus, UniProt P22909).
T1 construct: from tissue; host or cells: rat brain cortex, P2 membranes
T1 sequence (P22909 1-465): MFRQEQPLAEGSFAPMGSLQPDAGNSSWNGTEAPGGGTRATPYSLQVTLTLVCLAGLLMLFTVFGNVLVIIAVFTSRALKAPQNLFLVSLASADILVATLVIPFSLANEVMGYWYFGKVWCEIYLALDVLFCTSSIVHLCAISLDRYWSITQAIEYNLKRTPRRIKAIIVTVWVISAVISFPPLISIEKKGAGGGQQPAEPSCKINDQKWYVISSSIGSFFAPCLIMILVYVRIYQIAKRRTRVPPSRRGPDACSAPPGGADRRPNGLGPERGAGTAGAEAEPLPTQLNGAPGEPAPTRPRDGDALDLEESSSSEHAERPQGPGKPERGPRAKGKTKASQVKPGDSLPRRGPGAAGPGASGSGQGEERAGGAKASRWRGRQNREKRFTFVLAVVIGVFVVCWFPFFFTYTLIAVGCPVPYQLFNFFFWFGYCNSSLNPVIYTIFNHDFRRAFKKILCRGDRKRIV
Nature of the assay: α2-Adrenergic receptor binding, [^3 H] clonidine, rat brain cortex membranes. As to conditions: 1 nM [^3 H] clonidine, 10 mM MgCl2, pH 7.4, 30 min, room temperature. The protocol:
(§1) After the removal of nuclei by centrifugation at 1000×g for 10 min, P2 membranes were pelleted by centrifuging the supernatant at 22,000×g for 20 min. After two periods of centrifugation at 22,000×g and resuspension in fresh buffer, the membrane suspension (about 2 mg/ml protein) was ready for use. α1 -Adrenergic receptor binding assays (in triplicate) were carried out with 0.2 nM [^3 H] prazocin in a final volume of 1.0 ml of Tris buffer at pH 7.4 for 30 min at room temperature, using 10 μM phentolamine to determine non-specific binding. The concentrations of synthetic compounds for competition binding were in the range of 0.1-200 nM. α2 -adrenergic receptor binding assays (in triplicate) were carried out with 1 nM [^3 H] clonidine in the presence of 10 mM MgCl2 and in a final volume of 1.0 ml of Tris buffer at pH 7.4 for 30 min at room temperature, using 10 μM clonidine to determine non-specific binding. The concentrations of synthetic compounds for competition binding were in the range of 0.1-100 μM. […] The amount of membrane protein used in each assay was in the range of 300-400 μg, as determined by the method of Lowry et al. The results are given in Table 2. […] All other chemicals used were reagent grade and were purchased from Sigma (St. Louis, Mo.).

A further assay deals with α1-Adrenergic receptor. Nature of the assay: α1-Adrenergic receptor binding, [^3 H] prazosin, rat brain cortex membranes. As to conditions: 0.2 nM [^3 H] prazocin, pH 7.4, 30 min, room temperature. The protocol: as §1
The nature of assay [1]: Antihypertensive activity in anesthetized cats (blood pressure). Conditions: pentobarbital-anesthetized cats. The assay is classed as in vivo, cat. The protocol: The pharmacological activities of the compounds of the present invention are described in the following experiment. In this experiment, the test compounds used are as follows.
Adult cats of either sex, 2-3 Kg, anesthetized with pentobarbital sodium (30 mg/Kg i.p.) were used. The trachea was intubated to provide artificial respiration with air by means of a Harvard respirator (respiration rate=6-20/min and colume=40-50 ml/stroke). Both femoral artery and vein were cannulated with PE 150 to monitor blood pressure and for drug administration respectively. Body temperature was maintained at 37.5° C. with a heating pad and monitored with a rectal thermometer. Blood pressure was measured with a Statham P23D pressure transducer via a polyethylene cannula conducted to a right femoral artery. Heart rate was measured through a Grass Model 7B tachograph preamplifier triggered by the pulses of arterial blood pressure. All data were recorded on a Grass Model 7B polygraph.

For assay [2] the following is noted: acting as serotonin-S2 and α1-adrenoceptor antagonist, respectively; cited from earlier work.

Broadly, the Ki is the equilibrium dissociation constant of an inhibitor or competing ligand from its target. A low value points to a stronger hold on the target. At α2-adrenergic receptor, `O=C1Nc2ccccc2C2=NCC(CN3CCN(c4ccccc4)CC3)N12` (stereo not drawn) [Example 17, 3-(4-Phenyl-1-piperazinyl)-methyl-2,3-dihydroimidazo[1,2-c]quinazolin-5(6H)-one] showed a Ki of 962 ± 29 nM. Consider `COc1cccc(N2CCN(CC3CN=C4c5ccccc5NC(=O)N43)CC2)c1` (stereo not drawn) [Example 19, 3-{4-[1-(3-methoxyphenyl)piperazinyl]}methyl-2,3-dihydroimidazo[1,2-c]-quinazolin-5(6H)-one], for which the Ki at α1-Adrenergic receptor was 5.76 ± 0.48 nM. With `COC1=Nc2ccccc2C2=NCC(CN3CCN(c4ccccc4Cl)CC3)N12` (stereo not drawn) [Example 16, 3-{4-[1-(2-chlorophenyl)piperazinyl]}methyl-5-methoxy-2,3-dihydroimidazo[1,2-c]quinazoline], in assay [1] (dose 1 mg/Kg), the “MBP (2 hr)” value was found to be 23 mmHg.

For `CSC1=Nc2ccccc2C2=NCC(CN3CCN(c4ccccc4Cl)CC3)N12` (stereo not drawn) [Example 9, 3-{4-[1-(2-chlorophenyl)piperazinyl]}methyl-5-methylthio-2,3-dihydroimidazo[1,2-c]quinazoline], the values for the Ki at α1-Adrenergic receptor and on α2-adrenergic receptor were 0.34 ± 0.06 nM and 180 ± 7 nM, respectively. In addition, the “MBP (2 hr)” value in assay [1] (dose 1 mg/Kg) came out at 30 mmHg.

Regarding `COc1ccccc1N1CCN(CC2CN=C3c4ccccc4N(C)C(=O)N32)CC1` (stereo not drawn) [Example 23, 3-{4-[1-(2-methoxyphenyl)piperazinyl]}methyl-6-methyl-2,3-dihydroimidazo[1,2-c]quinazolin-5(6H)-one], the inhibitory constant (Ki) on α1-Adrenergic receptor was determined as 0.36 ± 0.05 nM. The “MBP (2 hr)” value in assay [1] (dose 0.25 mg/Kg) is given as 40 mmHg; in assay [1] (dose 1 mg/Kg) it was 63 mmHg.

`COC1=Nc2ccccc2C2=NCC(CN3CCN(c4cccc(OC)c4)CC3)N12` (stereo not drawn) [Example 14, 3-{4-[1-(3-methoxyphenyl)piperazinyl]}methyl-5-methoxy-2,3-dihydroimidazo[1,2-c]quinazoline] showed a Ki at α1-Adrenergic receptor above 100 nM. For `COc1ccccc1N1CCN(CCn2c(=O)[nH]c3ccccc3c2=O)CC1.Cl` [SGB-1534, reference compound], the inhibition constant (Ki) on α1-Adrenergic receptor was determined as 0.25 ± 0.06 nM. Besides, in assay [2], the “antihypertensive activity (in words), background art” value is listed as “found to have antihypertensive activities”. Regarding `O=C(c1ccc(F)cc1)C1CCN(CCn2c(=S)[nH]c3ccccc3c2=O)CC1` [thioketanserin], in assay [2], the “antihypertensive activity (in words), background art” value is on record as “found to have antihypertensive activities”. The compound `O=C1Nc2ccccc2C2=NCC(CN3CCN(c4ccccc4Cl)CC3)N12` (stereo not drawn) [Example 21, 3-{4-[1-(2-chlorophenyl)piperazinyl]}methyl-2,3-dihydroimidazo[1,2-c]quinazolin-5(6H)-one] displayed an inhibition constant (Ki) on α1-Adrenergic receptor of 0.58 ± 0.07 nM. Further, the “MBP (2 hr)” value in assay [1] (dose 1 mg/Kg) was found to be 35 mmHg. For the compound `COc1cccc(N2CCN(CC3CN=C4c5ccccc5N=C(SC)N43)CC2)c1` (stereo not drawn) [Example 7, 3-{4-[1-(3-methoxyphenyl)piperazinyl]}methyl-5-methylthio-2,3-dihydroimidazo[1,2-c]quinazoline], the inhibitory constant (Ki) on α1-Adrenergic receptor was 48.9 ± 20.4 nM; at α2-adrenergic receptor, 8360 ± 588 nM. `COc1ccccc1N1CCN(CC2CN=C3c4ccccc4NC(=O)N32)CC1` (stereo not drawn) [Example 18, 3-{4-[1-(2-methoxyphenyl)piperazinyl]}methyl-2,3-dihydroimidazo[1,2-c]quinazolin-5(6H)-one] showed a Ki on α1-Adrenergic receptor of 0.45 ± 0.09 nM. For the same compound, in assay [1] (dose 1 mg/Kg), the “MBP (2 hr)” value is 50 mmHg. Compound `CSC1=Nc2ccccc2C2=NCC(CN3CCN(c4ccccc4)CC3)N12` (stereo not drawn) [Example 5, 3-[4-(1-Phenyl)piperazinyl]methyl-5-methylthio-2,3-dihydroimidazo[1,2-c]quinazoline] gave an inhibition constant Ki at α1-Adrenergic receptor above 10 nM. As for `CN1C(=O)N2C(=NCC2CN2CCN(c3ccccc3Cl)CC2)c2ccccc21` (stereo not drawn) [Example 22, 3-{4-[1-(2-chlorophenyl)piperazinyl]}methyl-6-methyl-2,3-dihydroimidazo[1,2-c]quinazolin-5(6H)-one], the “MBP (2 hr)” value in assay [1] (dose 1 mg/Kg) amounted to 50 mmHg. `COC1=Nc2ccccc2C2=NCC(CN3CCN(c4ccccc4OC)CC3)N12` (stereo not drawn) [Example 12, 3-{4-[1-(2-Methoxyphenyl)piperazinyl]}methyl-5-methoxy-2,3-dihydroimidazo[1,2-c]quinazoline] displayed a Ki at α1-Adrenergic receptor of 0.07 ± 0.007 nM. Turning to `COc1ccccc1N1CCN(CC2CN=C3c4ccccc4N=C(SC)N32)CC1` (stereo not drawn) [Example 6, 3-{4-[1-(2-methoxyphenyl)piperazinyl]}methyl-5-methylthio-2,3-dihydroimidazo[1,2-c]quinazoline], the Ki at α1-Adrenergic receptor was determined as 0.54 ± 0.09 nM. In assay [1] (dose 1 mg/Kg), the “MBP (2 hr)” value stood at 70 mmHg.
